Common to all, as to assay: DTP human tumour cell line panel, 48 h
Experiment [1] deals with SK-MEL-2.
Experiment [2] concerns ACHN.
The subject of experiment [3] is IGROV-1.
Experiment [4] has as its system SK-MEL-5.
For experiment [5], the system named is SK-MEL-28.
Experiment [6] concerns MDA-MB-231.
Experiment [7] deals with SNB-19.
For experiment [8], the system named is DU-145.
In experiment [9] the test system is HT-29.
The subject of experiment [10] is COLO 205.
The test system of experiment [11] is SF-539.
In experiment [12] the test system is SN12C.
Experiment [13] has as its system A549.
The subject of experiment [14] is SF-268.
Experiment [15] concerns EKVX.
Experiment [16] deals with HL-60.
For experiment [17], the system named is UACC-62.
Experiment [18] concerns OVCAR-5.
In experiment [19] the test system is HCT-116.
Experiment [20] deals with HCT-15.

The structures appear in SMILES notation.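 96-well plates; 48 h exposure; 5 concentrations. Endpoints by linear interpolation between flanking doses. Not reached: highest tested concentration assigned. The concentration for 50% growth inhibition is given as GI50.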 The source made the active and inactive calls. Cut-off read from the data, not from the text of the source: active = GI50 up to about 1.1 µM and inactive = higher.

Data on ten molecules can be found in ChEMBL document CHEMBL1201862, “PubChem BioAssay data set” (2004).

One may read the GI50 as the concentration that inhibits growth by half.

For the molecule `O=C(CSc1nc2ccc([N+](=O)[O-])cc2s1)c1ccc2ccccc2c1`, the GI50 in experiment [1], in experiment [2], in experiment [3], in experiment [4], in experiment [5] and in [6] was > 100 µM (inactive) each time. The GI50 in [7] was 50.2 µM (inactive); in experiment [8], > 100 µM (inactive); in [9] it was > 100 µM (inactive); in [10], > 100 µM (inactive); in experiment [11], 62.2 µM (inactive); in experiment [12] it was > 100 µM (inactive). Further, the GI50 in experiment [13], in [14], in [15], in experiment [16], in experiment [17] and in experiment [18] was > 100 µM (inactive) throughout. Moreover, the GI50 was > 100 µM (inactive) in experiment [19] and above 100 µM in experiment [20].
As for `CC(C)(C)N(Cc1ccc2c(c1)OCO2)C(=O)/C=C\[S+]([O-])c1ccccc1` (stereo not given), the GI50 in experiment [1] is 3.02 µM (inactive); in [2], 3.97 µM (inactive); in [3], 3.21 µM (inactive); in experiment [4], 2.82 µM (inactive); in experiment [5] it was 7.89 µM (inactive); in [6] it was 2.95 µM (inactive). For the same molecule, the GI50 in experiment [7] is 7.67 µM (inactive); in experiment [8], 2.73 µM (inactive); in experiment [9], 3.23 µM (inactive); in experiment [10], 3.01 µM (inactive); in [11], 2.3 µM (inactive); in [12], 2.63 µM (inactive). For the same molecule, the GI50 was 4.6 µM (inactive) in experiment [13]; 1.23 µM (inactive) in experiment [14]; 7.29 µM (inactive) in experiment [15]; 2.11 µM (inactive) in experiment [16]; 3.37 µM (inactive) in experiment [17]; 10.7 µM (inactive) in experiment [18]. Moreover, the GI50 is 2.74 µM (inactive) in [19] and 2.65 µM in experiment [20].
Consider `COc1ccc(-c2nc(-c3cc4ccccc4oc3=O)cs2)cc1`, for which the GI50 in experiment [1] was > 100 µM (inactive); in [2] it was 34 µM (inactive); in experiment [3], 86.1 µM (inactive); in experiment [4], > 100 µM (inactive); in [5], > 100 µM (inactive); in experiment [6], 20.9 µM (inactive). In addition, the GI50 in [7] was 30.1 µM (inactive); in [8], > 100 µM (inactive); in experiment [9], 95.9 µM (inactive); in [10], > 100 µM (inactive); in experiment [11], 30.9 µM (inactive); in [12], 44.5 µM (inactive). Further, the GI50 is 85.7 µM (inactive) in [13]; 61.2 µM (inactive) in experiment [14]; > 100 µM (inactive) in [15]; > 100 µM (inactive) in experiment [16]; > 100 µM (inactive) in experiment [17]; > 100 µM (inactive) in experiment [18]. Also, the GI50 in [19] is 37.8 µM (inactive); in experiment [20], above 100 µM.
Take `O=C(Cn1cc(F)c(=O)[nH]c1=O)C12CC3CC(CC(C3)C1)C2`: the GI50 in experiment [1], in experiment [2], in experiment [3], in [4], in [5] and in experiment [6] was > 100 µM (inactive) in each case. Further, the GI50 in experiment [7], in experiment [8], in [9], in experiment [10], in [11] and in experiment [12] was > 100 µM (inactive) each time. Besides, the GI50 in [13], in experiment [14], in experiment [15], in experiment [16], in experiment [17] and in experiment [18] was > 100 µM (inactive) throughout. In addition, the figures for the GI50 in experiment [19] and in experiment [20] were > 100 µM (inactive) and above 100 µM, respectively.
For the molecule `COc1ccc2c3c1OC1C(OC)(OC)C=C[C@@]4(Br)[C@@H](C2)N(CC2CC2)CC[C@]314` (stereo not given in full), the GI50 was 38.5 µM (inactive) in experiment [1]; > 100 µM (inactive) in experiment [2]; 62.2 µM (inactive) in experiment [3]; 37.6 µM (inactive) in [4]; > 100 µM (inactive) in experiment [5]; 45.6 µM (inactive) in experiment [6]. Moreover, the GI50 in experiment [7] is > 100 µM (inactive); in experiment [8] it was > 100 µM (inactive); in [9], 61.9 µM (inactive); in [10], 31.8 µM (inactive); in experiment [11] it was > 100 µM (inactive); in experiment [12], > 100 µM (inactive). Moreover, the GI50 in experiment [13] was 95.7 µM (inactive); in experiment [14] it was 32.1 µM (inactive); in experiment [15] it was > 100 µM (inactive); in experiment [16] it was > 100 µM (inactive); in experiment [17], 68.5 µM (inactive); in [18] it was > 100 µM (inactive). The figures for the GI50 in experiment [19] and in experiment [20] were 44 µM (inactive) and above 100 µM, respectively.
For the molecule `Oc1ccc(O)c(CNc2ccccc2)c1`, the GI50 is 24.2 µM (inactive) in experiment [1]; 10.5 µM (inactive) in experiment [2]; 8.53 µM (inactive) in [3]; 16.8 µM (inactive) in [4]; 33 µM (inactive) in experiment [5]; 17.7 µM (inactive) in experiment [6]. The GI50 in experiment [7] was 19.5 µM (inactive); in experiment [8] it was 12.3 µM (inactive); in experiment [9], 32.2 µM (inactive); in experiment [10], 18.8 µM (inactive); in experiment [11], 3.46 µM (inactive); in experiment [12], 11.3 µM (inactive). In addition, the GI50 is 26.4 µM (inactive) in experiment [13]; 11.6 µM (inactive) in experiment [14]; 18.7 µM (inactive) in [15]; 2.67 µM (inactive) in experiment [16]; 13.3 µM (inactive) in experiment [17]; 21.6 µM (inactive) in experiment [18]. Further, the results for the GI50 in [19] and in experiment [20] were 7.26 µM (inactive) and 10.3 µM, respectively.
As to `O=C1Nc2ccccc2S/C1=C\c1cccc(C(F)(F)F)c1`, the GI50 in [1] was > 100 µM (inactive); in [2], > 100 µM (inactive); in experiment [3] it was > 100 µM (inactive); in experiment [4] it was > 100 µM (inactive); in experiment [5] it was > 100 µM (inactive); in [6], 7.85 µM (inactive). Also, the GI50 in experiment [7], in experiment [8], in experiment [9], in [10], in [11] and in [12] was > 100 µM (inactive) throughout. Also, the GI50 in experiment [13] is > 100 µM (inactive); in [14], > 100 µM (inactive); in experiment [15], > 100 µM (inactive); in [16], 5.01 µM (inactive); in experiment [17] it was > 100 µM (inactive); in experiment [18] it was > 100 µM (inactive). The GI50 in experiment [19] is > 100 µM (inactive); in experiment [20], above 100 µM.
Take `COc1cc([C@@H]2c3cc4c(cc3[C@H](OC3OC5COC(C(C)C)OC5C(O)C3O)C3COC(=O)[C@@H]32)OCO4)cc(OC)c1OC` (stereo not given in full): the GI50 is 8.36 µM (inactive) in experiment [1]; 4.79 µM (inactive) in experiment [2]; 4.17 µM (inactive) in experiment [3]; 5.55 µM (inactive) in experiment [4]; > 100 µM (inactive) in experiment [5]; 5.77 µM (inactive) in [6]. In addition, the GI50 in experiment [7] was 6.19 µM (inactive); in experiment [8] it was 11.7 µM (inactive); in [9] it was 2.54 µM (inactive); in experiment [10], 4.59 µM (inactive); in experiment [11], 3.6 µM (inactive); in experiment [12], 19.5 µM (inactive). For the same molecule, the GI50 in experiment [13] was 3.96 µM (inactive); in experiment [14], 5.81 µM (inactive); in experiment [15], 10.2 µM (inactive); in [16], 3.85 µM (inactive); in experiment [17], 4.7 µM (inactive); in [18], 10.3 µM (inactive). In addition, the GI50 in [19] is 2.83 µM (inactive); in [20] it was 4.49 µM.
Consider `C=C(Cl)C(Cl)(CBr)CCC(Cl)C(C)C` (stereo not given), for which the GI50 in experiment [1] was 0.619 µM (active); in experiment [2] it was 2.92 µM (inactive); in experiment [3], 9.31 µM (inactive); in experiment [4] it was 17.7 µM (inactive); in [5], 1.87 µM (inactive); in experiment [6] it was 3.95 µM (inactive). Besides, the GI50 is 4.04 µM (inactive) in experiment [7]; 1.37 µM (inactive) in [8]; 0.222 µM (active) in [9]; 4.79 µM (inactive) in [10]; 1.3 µM (inactive) in [11]; 13.2 µM (inactive) in [12]. The GI50 is 8.53 µM (inactive) in [13]; 1.72 µM (inactive) in experiment [14]; 14.7 µM (inactive) in [15]; 0.226 µM (active) in [16]; 3.08 µM (inactive) in experiment [17]; 10.8 µM (inactive) in [18]. For the same molecule, the GI50 was 1.37 µM (inactive) in experiment [19] and 5.46 µM in [20].
For the molecule `Nc1cc2c(c3ccccc13)C(CCl)CN2C(=O)c1cc2cc(NC(=O)c3cc4ccccc4o3)ccc2[nH]1` (stereo not given), the GI50 in [1] was 0.00286 µM (active); in experiment [2] it was 0.000492 µM (active); in experiment [3], 0.00578 µM (active); in [4], 0.000787 µM (active); in [5], 0.0123 µM (active); in experiment [6], 0.0221 µM (active). In addition, the GI50 in experiment [7] was 0.0124 µM (active); in experiment [8], 0.000679 µM (active); in [9] it was 0.00144 µM (active); in [10] it was 0.0056 µM (active); in experiment [11] it was 0.11 µM (active); in [12], 0.00345 µM (active). Further, the GI50 in [13] was 0.000891 µM (active); in experiment [14], 0.00195 µM (active); in [15] it was 0.11 µM (active); in experiment [16], 0.000264 µM (active); in [17] it was 0.00304 µM (active); in [18] it was 0.00753 µM (active). Also, the GI50 in [19] was 0.00254 µM (active); in [20], 0.00382 µM.
